Measured values published in US12370352B2, “Nasal and ophthalmic delivery of aqueous corticosteroid solutions” (CyDex Pharmaceuticals, Inc., priority 2007, dated 2025).
Structures can show the parent of a compound that is named as a salt.

What was measured:
[1] = Equilibrium binding constants (K) of corticosteroids with CAPTISOL (Example 46); settings: CAPTISOL (0.04 M); in M-1 (unit assumed)
Description: (§1) The binding of a corticosteroid to the SAE-CD can be characterized by its equilibrium binding constant. The higher the binding constant, the more tightly the corticosteroid is bound to the SAE-CD.

[2] = Equilibrium binding constants (K) of corticosteroids with SBE6.1-γ-CD (Example 46); settings: (SBE)6.1 γ (0.04 M); in M-1 (unit assumed)
Description: as §1

[3] = assay type: binding
Procedure: A composition of the invention can comprise SAE-CD, corticosteroid, aqueous liquid carrier, and an antihistamine. In some embodiments, the composition contains SAE-CD, budesonide, water (or aqueous buffer) and azelastine. Example 14 details the preparation of such a composition. Other solutions of azelastine in buffer with varying amounts of SAE-CD, in the absence of budesonide, were prepared and scanned by UV Spectrometer. The change in absorption as a function of SAE-CD concentration was plotted and used to determine the equilibrium binding constant of azelastine with SAE-CD, according to the Benesi-Hildebrand equation. […] The binding constant for budesonide under similar conditions was determined to be about 1000; therefore, azelastine will compete with budesonide, or another corticosteroid, for binding to SAE-CD. Accordingly, the amount of SAE-CD present can be increased to permit complete dissolution of both drugs.
(§2) The equilibrium binding constant of the corticosteroid can change when a second active agent is present in a composition of the invention. Since azelastine hydrochloride (AZ-HCl) has an approximately 10-fold higher binding constant for SBE-β-CD than does budesonide (BUD), the amount of SBE-β-CD present in an aqueous composition of the three needs to be sufficient to solubilize both drugs. Example 19 details a procedure for determination of the phase solubility of budesonide in the presence of varying amounts of azelastine. The results are depicted in FIGS. 11A (for SBE-β-CD) and 11B (for SBE-β-CD and SBE-γ-CD). […] FIG. 11B is a chart of the phase solubility of BUD as a function of SBE-β-CD or SBE-γ-CD concentration in solution using various different concentrations of AZ-HCl (1.00-2.75 mg.mL). […] Thus, increasing the amount of AZ-HCl in the solution decreases the overall solubility of BUD. […] Therefore, it is advantageous to prepare solution compositions of these combinations using SBE-γ-CD due to the efficiency of interaction so as to require less of one SAExCD versus another different SAEyCD to solubilize similar amounts of actives in the presence of each other.

[4] = assay type: binding; remark: listed apart in the source
Description: as §2

[5] = Stability of budesonide R- and S-isomers with and without SBE7-β-CD (Example 13); assay type: physicochemical; settings: pH 4 and 6, all temperatures (60° C., 80° C.)
Procedure: SAE-CD is also capable of stabilizing the isomers of budesonide to different extents. […] At a given temperature the ratio of rate constants with/without SBE7-β-CD was less at pH 6 than at pH 4. Although SBE7-β-CD stabilized both isomers, the S-isomer appears to be stabilized to an even greater extent than the R. At all temperatures and pHs tested, the ratio of rate constants with/without SBE7-β-CD was lower for the S isomer. The degree of stabilization affected by SBE7-β-CD at 60° C. is greater than at 80° C. An even greater degree of stabilization would be expected at 40° C. and/or room temperature (20-30° C.). […] The loss of budesonide was first order and […]. […] To achieve a concentration of budesonide in the buffers without SBE7-β-CD sufficient for accurate measurement, the budesonide was dissolved first in 100% ethyl alcohol. […] All solution preps and procedures involving budesonide were done in a darkened room under red light. […] The final budesonide concentration was about 50 μg/mL. […] Each solution was aliquoted into individual amber vials. They were then placed in ovens at 60° C. and 80° C. Sample vials were removed from the ovens and analyzed by HPLC at 0, 96, 164, and 288 hours. The HPLC assay conditions are summarized below. […]

[6] = Phase solubility of budesonide in the presence of SAE-CD and azelastine hydrochloride (Example 19); assay type: physicochemical; settings: SBE-β-CD or SBE-γ-CD solutions, pH 4.5 citrate buffer
Description: The equilibrium binding constant of the corticosteroid can change when a second active agent is present in a composition of the invention. Since azelastine hydrochloride (AZ-HCl) has an approximately 10-fold higher binding constant for SBE-β-CD than does budesonide (BUD), the amount of SBE-β-CD present in an aqueous composition of the three needs to be sufficient to solubilize both drugs. Example 19 details a procedure for determination of the phase solubility of budesonide in the presence of varying amounts of azelastine. The results are depicted in FIGS. 11A (for SBE-β-CD) and 11B (for SBE-β-CD and SBE-γ-CD). […] FIG. 11B is a chart of the phase solubility of BUD as a function of SBE-β-CD or SBE-γ-CD concentration in solution using various different concentrations of AZ-HCl (1.00-2.75 mg.mL). […] Thus, increasing the amount of AZ-HCl in the solution decreases the overall solubility of BUD. […]
A stock solution of citrate buffer (3 mM, pH 4.5) was prepared. […] Any budesonide remaining suspended in the solutions was removed by filtration and the concentration of budesonide in each solution measured by HPLC as described herein. […]

[7] = Fluticasone propionate concentration in SBE-Gamma ophthalmic solution, excess drug (Example 36 Method A); assay type: physicochemical; settings: 10% w/v SBE-Gamma (D.S.=6.1), 0.01% TWEEN
Procedure: A citrate buffer solution at a pH of 4.5 was prepared by mixing various portions of 0.003M citric acid with 0.003M of trisodium citrate. A phosphate buffer solution at a pH of 6.0 was prepared by mixing various portions of 0.003M monobasic sodium phosphate with 0.003M of dibasic sodium phosphate. […] An excess of fluticasone propionate was added to the vials and equilibrated on a rocker for three days. The samples were then filtered using a PVDF 0.22 μm syringe filter. Aliquots of the solutions were placed into clear glass 2 mL serum vials with aluminum crimp caps and Daikyo Flurotec septums. […] The concentration of the pH 6.0 solution was 238 μg/mL.

[8] = Phase solubility of corticosteroids with cyclodextrins (Example 23)
[9] = Aqueous budesonide/olopatadine/CAPTISOL solution (Example 47); assay type: physicochemical
Procedure: An aqueous budesonide/olopatadine solution was prepared. […] Three mM citrate buffer was prepared at pH 4.5. […] Those citrate solutions were mixed to adjust the pH to 4.5. […] The solutions were transferred into 250 mL amber beakers with a magnetic stir disk. The solutions were mixed with a magnetic stir disk at 900 rpm at a temperature of 35° C. Approximately 34 milligrams of budesonide was suspended in each CAPTISOL solution. The samples were mixed with a magnetic stir disk at 900 rpm and 35° C. After 24 hours, the samples were filtered through 0.22 μm PVDF filter. The budesonide in the aliquots was assayed by an HPLC assay method and the concentrations were 340 μg/mL. […] Approximately 27 milligrams of olopatadine HCl was weighed into each of three 2 drams amber vials. The olopatadine HCl was suspended to 4 mL of budesonide/CAPTISOL solutions prepared in Part A. The samples were mixed on a roller mixer at RT. After 24 hours, the samples were filtered through 0.22 μm PVDF filter. The olopatadine and budesonide in the aliquots was assayed by HPLC assay methods, respectively. All olopatadine HCl concentrations were >6.6 mg/mL and all budesonide concentrations were >320 μg/mL. […] Approximately 27 milligrams of olopatadine HCl were weighed into each of three 2 drams amber vials. The olopatadine HCl was suspended to 4 mL of budesonide/CAPTISOL solutions prepared in Part A. The samples were mixed on a roller mixer at RT. After 1 hour, the pH of each sample was adjusted to 4.5 with 1N NaOH. Again, the samples were mixed on a roller mixer at RT. […] All samples were filtered through 0.22 μm PVDF filter. The olopatadine and budesonide in the aliquots were assayed by HPLC assay methods, respectively.

CCC(=O)OCC(=O)[C@@]1(OC(=O)CC)[C@@H](C)C[C@H]2[C@@H]3CCC4=CC(=O)C=C[C@]4(C)[C@@]3(Cl)[C@@H](O)C[C@@]21C [Beclomethasone dipropionate, beclomethasone dipropionate]
Binding Constant- K [1]: 684 | Binding Constant- K [2]: 2862

CCCC1O[C@@H]2C[C@H]3[C@@H]4CCC5=CC(=O)C=C[C@]5(C)[C@H]4[C@@H](O)C[C@]3(C)[C@]2(C(=O)CO)O1 (stereo partly drawn) [Budesonide, (R,S)-11β, 16α, 17, 21-tetrahydroxypregna-1,4-diene-3, 20-dione cyclic 16, 17-acetal with butyraldehyde]
Equilibrium complex stability constant with SBE-β-CD [3]: 1000 M⁻¹ | Equilibrium complex stability constant with SBE-γ-CD [4]: 2000 M⁻¹ | With/without CAPTISOL ratio of degradation rate constants [5]: less than 1 | Overall solubility of BUD with increasing amount of AZ-HCl [6]: decreases

CC1(C)O[C@@H]2C[C@H]3[C@@H]4C[C@H](F)C5=CC(=O)C=C[C@]5(C)[C@H]4[C@@H](O)C[C@]3(C)[C@]2(C(=O)CO)O1 [Flunisolide]
Binding Constant- K [1]: 590 | Binding Constant- K [2]: 1104

CCC(=O)O[C@]1(C(=O)SCF)[C@H](C)C[C@H]2[C@@H]3C[C@H](F)C4=CC(=O)C=C[C@]4(C)[C@@]3(F)[C@@H](O)C[C@@]21C [Fluticasone propionate, fluticasone propionate]
Binding Constant- K [1]: 322 | Binding Constant- K [2]: 3338 | Concentration in solution (excess drug, filtered) ([7]; citrate buffer pH 4.5): 232 µg/mL | Concentration in solution (excess drug, filtered) ([7]; phosphate buffer pH 6.0): 238 µg/mL

C[C@]12CCC(=O)C=C1CC[C@@H]1[C@@H]2[C@@H](O)C[C@@]2(C)[C@H]1CC[C@]2(O)C(=O)CO [Hydrocortisone]
Binding Constant- K [1]: 1932 | Binding Constant- K [2]: 1430

C[C@@H]1C[C@H]2[C@@H]3CCC4=CC(=O)C=C[C@]4(C)[C@@]3(Cl)[C@@H](O)C[C@]2(C)[C@@]1(OC(=O)c1ccco1)C(=O)CCl [Mometasone Fuorate]
Binding Constant- K [1]: 201 | Binding Constant- K [2]: 551

C[C@]12C=CC(=O)C=C1CC[C@@H]1[C@@H]2[C@@H](O)C[C@@]2(C)[C@H]1CC[C@]2(O)C(=O)CO [Prednisolone]
Binding Constant- K [1]: 1496 | Binding Constant- K [2]: 1653

CC1(C)O[C@@H]2C[C@H]3[C@@H]4CCC5=CC(=O)C=C[C@]5(C)[C@@]4(F)[C@@H](O)C[C@]3(C)[C@]2(C(=O)CO)O1 [Triamcinolone acetonide, triamcinolone acetonide]
Approximate Molar Ratio at Saturated Solubility of Corticosteroid (SAE-CD:corticosteroid) ([8]; SAE-β-CD): 8.8 | Approximate Molar Ratio at Saturated Solubility of Corticosteroid (SAE-CD:corticosteroid) ([8]; SAE-γ-CD): 3.8

CN1CCCC(n2nc(Cc3ccc(Cl)cc3)c3ccccc3c2=O)CC1 (stereo not drawn) [azelastine HCL, azelastine hydrochloride]
Binding constant for SBE-β-CD relative to budesonide ([3]; AZ-HCl versus BUD): approximately 10 fold

CN(C)CC/C=C1/c2ccccc2COc2ccc(CC(=O)O)cc21 [olopatadine HCl]
Olopatadine HCl concentration ([9]; Part B, all CAPTISOL concentrations (5, 7.5, 10% w/v), pH ~3.8): > 6.6 mg/mL | Olopatadine HCl concentration ([9]; Part C, pH adjusted to 4.5, CAPTISOL 5% w/v (precipitation)): 6.5 mg/mL | Olopatadine HCl concentration ([9]; Part C, pH adjusted to 4.5, CAPTISOL 7.5 and 10% w/v): > 6.6 mg/mL
